Measurements reported in PMC9535023, “Inhibition of phospholipase D1 induces immunogenic cell death and potentiates cancer immunotherapy in colorectal cancer” (Experimental & Molecular Medicine, 2022).

Assays:
DLD1 cells [1] = assay: Apoptosis assay (annexin V flow cytometry), DLD1; format: cell-based
Description: (§1) For cell cycle analysis, the cells were treated with Α3373 or 5-FU. The cells were labeled with 10 μΜ bromodeoxyuridine (BrdU) for 2 h. Subsequently, the cells were stained with 7-aminoactinomycin D (7-AAD, Invitrogen) and a fluorescein isothiocyanate (FITC)-conjugated anti-BrdU antibody (Invitrogen). Apoptotic cells were detected using an Annexin V-FITC Apoptosis Detection Kit (BD Biosciences). The cells were analyzed using BD FACSAria III (BD Biosciences), and data analysis was performed using FlowJo v10.0 (BD Biosciences).

FHC cells [2] = assay: Cell cycle analysis (BrdU/7-AAD flow cytometry), FHC; format: cell-based; settings: FHC normal fetal colonic mucosa cells
Description: as §1

DLD1 cells [3] = assay: Cell cycle analysis (BrdU/7-AAD flow cytometry), DLD1; format: cell-based
Description: as §1

FHC cells [4] = assay: Apoptosis assay (annexin V flow cytometry), FHC; format: cell-based
Description: as §1

PLD1 = target: T1, PLD1 (Homo sapiens, UniProt Q13393); assay: Streptavidin pull-down assay, PLD1; format: binding; settings: 10 μM, various CRC cell lysates
T1 construct: endogenous in cells
T1 sequence (Q13393 1-1074): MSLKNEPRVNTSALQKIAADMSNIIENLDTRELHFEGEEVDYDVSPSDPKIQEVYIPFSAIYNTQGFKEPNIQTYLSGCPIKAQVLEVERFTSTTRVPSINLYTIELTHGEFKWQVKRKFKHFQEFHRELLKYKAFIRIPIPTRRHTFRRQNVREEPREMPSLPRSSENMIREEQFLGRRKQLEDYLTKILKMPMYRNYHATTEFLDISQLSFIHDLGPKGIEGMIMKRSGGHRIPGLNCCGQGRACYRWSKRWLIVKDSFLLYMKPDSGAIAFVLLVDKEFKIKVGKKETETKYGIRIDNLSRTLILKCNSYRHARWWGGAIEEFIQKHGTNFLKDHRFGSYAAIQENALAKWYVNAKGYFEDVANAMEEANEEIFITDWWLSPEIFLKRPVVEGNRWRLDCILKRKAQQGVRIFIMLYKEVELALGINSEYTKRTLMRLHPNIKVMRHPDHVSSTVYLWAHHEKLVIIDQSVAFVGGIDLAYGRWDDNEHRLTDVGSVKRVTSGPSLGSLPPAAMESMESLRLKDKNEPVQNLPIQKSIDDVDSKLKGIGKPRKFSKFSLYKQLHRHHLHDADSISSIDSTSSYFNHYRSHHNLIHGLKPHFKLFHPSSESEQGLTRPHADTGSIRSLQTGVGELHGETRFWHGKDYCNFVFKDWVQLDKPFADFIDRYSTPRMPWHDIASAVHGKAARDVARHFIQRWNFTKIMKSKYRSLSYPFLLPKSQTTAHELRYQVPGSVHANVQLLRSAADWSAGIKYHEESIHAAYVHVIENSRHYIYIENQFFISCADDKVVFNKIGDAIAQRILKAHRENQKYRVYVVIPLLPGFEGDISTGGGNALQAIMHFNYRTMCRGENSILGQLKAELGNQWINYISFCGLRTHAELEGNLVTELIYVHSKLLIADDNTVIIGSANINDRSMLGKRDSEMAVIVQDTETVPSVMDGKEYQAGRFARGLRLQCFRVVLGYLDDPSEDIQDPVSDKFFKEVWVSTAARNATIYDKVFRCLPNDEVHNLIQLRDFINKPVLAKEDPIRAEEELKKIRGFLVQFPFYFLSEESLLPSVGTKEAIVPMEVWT
Description: Cells were lysed in passive lysis buffer (Promega). Cell lysates were incubated with biotinylated chemicals (A4333, 10 μM) or biotin (10 μM) at 37 °C for 1 h and treated with streptavidin beads (Thermo Scientific) at 20 °C for 1 h. After removing free biotinylated chemicals by washing with PBS, the samples were subjected to SDS‒PAGE followed by immunoblotting with an antibody against PLD[20].

PLD [5] = assay: PLD activity assay in DLD1 cells; format: cell-based; settings: compared to unsubstituted congener
Description: (§2) Cells were labeled with [H^3] myristic acid, and PLD activity was assessed by measuring the formation of [H^3] phosphatidylbutanol, which is the product of PLD-mediated transphosphatidylation, in the presence of 1-butanol, as previously described.

PLD [6] = assay: PLD activity assay in HCT 116 cells; format: cell-based; settings: at 10 μM (Fig. 1c)
Description: as §2

## O=c1[nH]cc(F)c(=O)[nH]1 [Compound 5-FU, 5-fluorouracil, reference compound]
DLD1 cells [1]
  apoptosis of CRC cells, in words: increased the apoptosis of both CRC and FHC cells
FHC cells [2]
  cell cycle / S phase in FHC cells, in words: decreased the S phase population
DLD1 cells [3]
  cell cycle / proliferation of CRC cells, in words: decreased the S phase population
FHC cells [4]
  apoptosis of FHC cells, in words: increased the apoptosis of both CRC and FHC cells

## O=C(CCCC[C@@H]1SC[C@@H]2NC(=O)N[C@@H]21)NNC(=O)c1ccc2[nH]c(C(=O)Nc3cc(C(F)(F)F)cc(C(F)(F)F)c3)cc2c1 [Compound A4333]
PLD1
  interaction with PLD1 (pull-down): interacted with PLD1
PLD [5]
  PLD inhibition, in words: still potent for PLD inhibition

## C[C@@H](CN1CCC(n2c(=O)[nH]c3cc(Cl)ccc32)CC1)NC(=O)c1ccc2ccccc2c1 [VU0155069, reference compound]
PLD [6]
  PLD activity remained: 30.4%
